Assay results published in patent US10040749B2, “Opsin-binding ligands, compositions and methods of use” (priority 2011, dated 2018).

system: P23H opsin; test: Rhodopsin purification and regeneration (P23H cells treated with compound, regenerated with 9-cis-retinal, 480-500 nm absorbance); settings: 480-500 nm absorbance as fold increase over DMSO control; P23H cells; compound 10 μM

| Compound | Fold Increase Over Control [fold] |
| --- | --- |
| CC1=C(CNc2cccc(C(F)(F)F)c2)C(C)(C)CCC1.Cl [Compound 1, 3-(trifluoromethyl)-N-((2,6,6-trimethylcyclohex-1-enyl)methyl)aniline hydrochloride] | 1.8 |
| CC1=C(CNc2cccc(C)c2)C(C)(C)CCC1 [Compound 2, 3-methyl-N-((2,6,6-trimethylcyclohex-1-enyl)methyl)aniline] | 2.0 |
| CC1=C(CNc2cccc(Cl)c2)C(C)(C)CCC1 [Compound 5, 3-chloro-N-((2,6,6-trimethylcyclohex-1-enyl)methyl)aniline] | 1.8 |
| CC1=C(COc2cccc(C)c2)C(C)(C)CCC1 [Compound 6, 1-methyl-3-((2,6,6-trimethylcyclohex-1-enyl)methoxy)benzene] | 1.6 |
| CC1=C(COc2cccc(F)c2)C(C)(C)CCC1 [Compound 7, 1-fluoro-3-((2,6,6-trimethylcyclohex-1-enyl)methoxy)benzene] | 2.4 |
| CC1=C(COc2cccc(Cl)c2)C(C)(C)CCC1 [Compound 8, 1-chloro-3-((2,6,6-trimethylcyclohex-1-enyl)methoxy)benzene] | 2.2 |
| CC1=C(CNc2cccc(F)c2)C(C)(C)CCC1.Cl [Compound 10, 3-fluoro-N-((2,6,6-trimethylcyclohex-1-enyl)methyl)aniline hydrochloride] | 2.1 |
| CC1=C(CNc2ccc(F)c(C)c2)C(C)(C)CCC1.Cl [Compound 15, 4-fluoro-3-methyl-N-((2,6,6-trimethylcyclohex-1-enyl)methyl)aniline hydrochloride] | 1.6 |
| CC1=C(COc2ccc(F)c(F)c2)C(C)(C)CCC1 [Compound 29, 1,2-difluoro-4-((2,6,6-trimethylcyclohex-1-enyl)methoxy) benzene] | 2.4 |
| CC1=C(C(O)Cc2ccc(C)c(C)c2)C(C)(C)CCC1 (centres unmarked) [Compound 30, 2-(3,4-dimethylphenyl)-1-(2,6,6-trimethylcyclohex-1-enyl)ethanol] | 1.8 |
| CC1(C)CCCC=C1CNc1cccc(F)c1.Cl [Compound 32, N-((6,6-dimethylcyclohex-1-enyl)methyl)-3-fluoroaniline hydrochloride] | 1.7 |
| C[C@H]1CCCC(C)(C)[C@@H]1CNc1cccc(Cl)c1.Cl [Compound 37, 3-chloro-N-(((1R,6S)-2,2,6-trimethylcyclohexyl)methyl)aniline hydrochloride] | 2.4 |
| C[C@H]1CCCC(C)(C)[C@@H]1CNc1cccc(F)c1.Cl [Compound 38, 3-fluoro-N-(((1R,6S)-2,2,6-trimethylcyclohexyl)methyl)aniline hydrochloride] | 2.4 |

same assay, conditions: 480-500 nm absorbance as fold increase over DMSO control; P23H cells; compound 20 μM

| Compound | Fold Increase Over Control [fold] |
| --- | --- |
| C[C@H]1CCCC(C)(C)[C@@H]1CNc1cccc(C(F)(F)F)c1.Cl [Compound 12, 3-(trifluoromethyl)-N-(((1R,6S)-2,2,6-trimethylcyclohexyl)methyl)aniline hydrochloride] | 2.0 |
| CC1=C(CC(O)c2cccc(C(F)(F)F)c2)C(C)(C)CCC1 (centres unmarked) [Compound 20, 1-(3-(trifluoromethyl)phenyl)-2-(2,6,6-trimethylcyclohex-1-enyl)ethanol] | 2.4 |
| CC(=O)/C=C/C1=C(C)CCCC1(C)C [β-ionone, reference compound] | 2.4 |

same assay, conditions: FIG. 1; P23H opsin treated with 20 μM during mutant protein production, relative to vehicle (DMSO) alone

| Compound | regeneration of 500 nm absorbing pigment upon treatment with retinal |
| --- | --- |
| CC(=O)/C=C/C1=C(C)CCCC1(C)C [β-ionone, reference compound] | increase |
